From ChEMBL document CHEMBL1135136, “Carbonic anhydrase inhibitors. Preparation of potent sulfonamides inhibitors incorporating bile acid tails” (Bioorg Med Chem Lett, 2002) come the findings set out here.

pKi: −log10 of the molar value.

In one assay the target is Carbonic anhydrase 2 (Homo sapiens, UniProt P00918).
For a further assay, the target named is T1, Carbonic anhydrase 4 (Bos taurus, UniProt Q95323).
T1 sequence (Q95323 whole entry): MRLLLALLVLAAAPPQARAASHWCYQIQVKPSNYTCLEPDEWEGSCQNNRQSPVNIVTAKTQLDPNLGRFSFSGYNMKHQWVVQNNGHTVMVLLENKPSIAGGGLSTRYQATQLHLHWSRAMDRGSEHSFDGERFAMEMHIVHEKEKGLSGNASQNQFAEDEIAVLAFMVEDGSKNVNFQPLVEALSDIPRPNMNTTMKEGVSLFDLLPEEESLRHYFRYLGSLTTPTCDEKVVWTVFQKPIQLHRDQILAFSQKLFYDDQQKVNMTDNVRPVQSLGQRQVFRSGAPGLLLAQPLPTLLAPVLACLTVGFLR

A further assay has as its target Carbonic anhydrase 1 (Homo sapiens, UniProt P00915).

Carbonic anhydrase 1, sequence (P00915 whole entry): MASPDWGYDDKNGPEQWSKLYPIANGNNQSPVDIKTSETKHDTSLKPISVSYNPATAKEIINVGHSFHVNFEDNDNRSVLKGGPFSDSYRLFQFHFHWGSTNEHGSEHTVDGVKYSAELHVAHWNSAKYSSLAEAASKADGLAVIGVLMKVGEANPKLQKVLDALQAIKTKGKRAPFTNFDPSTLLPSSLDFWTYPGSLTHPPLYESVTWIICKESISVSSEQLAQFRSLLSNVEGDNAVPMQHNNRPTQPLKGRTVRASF
Description for Carbonic anhydrase 1: Inhibitory activity against human recombinant carbonic anhydrase I (CA1)
Description for Carbonic anhydrase 2: Inhibitory activity against human recombinant carbonic anhydrase II (CA2)
Description for Carbonic anhydrase 4: Inhibitory activity against bovine carbonic anhydrase IV (CA4), obtained from bovine lung microsomes

For the molecule `C[C@H](CCC(=O)OCCc1ccc(S(N)(=O)=O)cc1)[C@H]1CC[C@H]2[C@@H]3[C@H](O)C[C@@H]4C[C@H](O)CC[C@]4(C)[C@H]3C[C@H](O)[C@]12C`, the pKi on Carbonic anhydrase 2 is 7.10; at Carbonic anhydrase 4, 6.52; on Carbonic anhydrase 1, 5.94.
Taken in the same sequence, the figures for `C[C@H](CCC(=O)Oc1ccc2nc(S(N)(=O)=O)sc2c1)[C@H]1CC[C@H]2[C@@H]3CC[C@@H]4C[C@H](O)CC[C@]4(C)[C@H]3CC[C@]12C` were 8.70, 8.05 and 7.40.
Consider `C[C@H](CCC(=O)Oc1ccc2nc(S(N)(=O)=O)sc2c1)[C@H]1CC[C@H]2[C@@H]3[C@@H](O)C[C@@H]4C[C@H](O)CC[C@]4(C)[C@H]3CC[C@]12C`, for which the pKi on Carbonic anhydrase 2 is 9.15; at Carbonic anhydrase 4, 8.22; on Carbonic anhydrase 1, 7.51.
For `C[C@H](CCC(=O)NCCc1ccc(S(N)(=O)=O)cc1)[C@H]1CC[C@H]2[C@@H]3CC[C@@H]4C[C@H](O)CC[C@]4(C)[C@H]3C[C@H](O)[C@]12C`, the pKi at Carbonic anhydrase 2 was 7.11; at Carbonic anhydrase 4, 6.61; at Carbonic anhydrase 1, 5.82.
Take `C[C@H](CCC(=O)Nc1ccc(S(N)(=O)=O)cc1Br)[C@H]1CC[C@H]2[C@@H]3[C@@H](O)C[C@@H]4C[C@H](O)CC[C@]4(C)[C@H]3CC[C@]12C`: the figures for the pKi on Carbonic anhydrase 2, on Carbonic anhydrase 4 and at Carbonic anhydrase 1 were 8.00, 7.64 and 7.04, respectively.
Taken in the same sequence, the figures for `C[C@H](CCC(=O)Nc1ccc(S(N)(=O)=O)cc1F)[C@H]1CC[C@H]2[C@@H]3[C@H](O)C[C@@H]4C[C@H](O)CC[C@]4(C)[C@H]3CC[C@]12C` were 7.30, 6.89 and 5.98.
Taken in the same sequence, the figures for `C[C@H](CCC(=O)NCCc1ccc(S(N)(=O)=O)cc1)[C@H]1CC[C@H]2[C@@H]3CC[C@@H]4C[C@H](O)CC[C@]4(C)[C@H]3CC[C@]12C` were 7.39, 7.15 and 6.19.
In the same order, the values of `C[C@H](CCC(=O)Nc1ccc(S(N)(=O)=O)cc1I)[C@H]1CC[C@H]2[C@@H]3[C@H](O)C[C@@H]4C[C@H](O)CC[C@]4(C)[C@H]3C[C@H](O)[C@]12C` are 7.28, 6.98 and 6.29.
Consider `C[C@H](CCC(=O)Nc1ccc(S(N)(=O)=O)cc1)[C@H]1CC[C@H]2[C@@H]3[C@H](O)C[C@@H]4C[C@H](O)CC[C@]4(C)[C@H]3C[C@H](O)[C@]12C`, for which the pKi at Carbonic anhydrase 2 is 6.68; on Carbonic anhydrase 4, 6.37; on Carbonic anhydrase 1 it was 4.68.
For the molecule `C[C@H](CCC(=O)Nc1ccc(S(N)(=O)=O)cc1)[C@H]1CC[C@H]2[C@@H]3CC[C@@H]4C[C@H](O)CC[C@]4(C)[C@H]3CC[C@]12C`, the negative logarithm of the Ki (pKi) is 6.97 on Carbonic anhydrase 2, 6.55 on Carbonic anhydrase 4 and 5.20 on Carbonic anhydrase 1.
In the same order, the values of `C[C@H](CCC(=O)Nc1ccc2nc(S(N)(=O)=O)sc2c1)[C@H]1CC[C@H]2[C@@H]3CC[C@@H]4C[C@H](O)CC[C@]4(C)[C@H]3CC[C@]12C` are 8.55, 8.05 and 7.32.
With `C[C@H](CCC(=O)Nc1c(S(N)(=O)=O)cc(S(N)(=O)=O)c(Cl)c1Cl)[C@H]1CC[C@H]2[C@@H]3C(=O)C[C@@H]4CC(=O)CC[C@]4(C)[C@H]3CC(=O)[C@]12C`, the pKi was 8.05 at Carbonic anhydrase 2, 7.62 at Carbonic anhydrase 4 and 7.35 on Carbonic anhydrase 1.
Turning to `C[C@H](CCC(=O)OCCc1ccc(S(N)(=O)=O)cc1)[C@H]1CC[C@H]2[C@@H]3[C@@H](O)C[C@@H]4C[C@H](O)CC[C@]4(C)[C@H]3CC[C@]12C`, the pKi was 7.24 on Carbonic anhydrase 2, 6.80 at Carbonic anhydrase 4 and 6.46 on Carbonic anhydrase 1.
Taken in the same sequence, the figures for `C[C@H](CCC(=O)/N=c1\sc(S(N)(=O)=O)nn1C)[C@H]1CC[C@H]2[C@@H]3CC[C@@H]4C[C@H](O)CC[C@]4(C)[C@H]3C[C@H](O)[C@]12C` were 7.96, 7.20 and 6.62.
Taken in the same sequence, the figures for `C[C@H](CCC(=O)OCc1ccc(S(N)(=O)=O)cc1)[C@H]1CC[C@H]2[C@@H]3CC[C@@H]4C[C@H](O)CC[C@]4(C)[C@H]3CC[C@]12C` were 7.04, 6.50 and 6.10.
In the same order, the values of `C[C@H](CCC(=O)NCc1ccc(S(N)(=O)=O)cc1)[C@H]1CC[C@H]2[C@@H]3[C@H](O)C[C@@H]4C[C@H](O)CC[C@]4(C)[C@H]3CC[C@]12C` are 7.02, 6.61 and 5.46.
With `C[C@H](CCC(=O)Nc1cc(Cl)c(S(N)(=O)=O)cc1S(N)(=O)=O)[C@H]1CC[C@H]2[C@@H]3[C@H](O)C[C@@H]4C[C@H](O)CC[C@]4(C)[C@H]3C[C@H](O)[C@]12C`, the figures for the negative logarithm of the Ki (pKi) at Carbonic anhydrase 2, at Carbonic anhydrase 4 and on Carbonic anhydrase 1 were 7.25, 6.89 and 6.40, respectively.
In the case of `C[C@H](CCC(=O)NNc1ccc(S(N)(=O)=O)cc1)[C@H]1CC[C@H]2[C@@H]3CC[C@@H]4C[C@H](O)CC[C@]4(C)[C@H]3CC[C@]12C`, the pKi at Carbonic anhydrase 2 was 6.55; on Carbonic anhydrase 4, 6.19; on Carbonic anhydrase 1 it was 4.82.
In the same order, the values of `C[C@H](CCC(=O)Nc1ccc2nc(S(N)(=O)=O)sc2c1)[C@H]1CC[C@H]2[C@@H]3C(=O)C[C@@H]4CC(=O)CC[C@]4(C)[C@H]3CC(=O)[C@]12C` are 9.10, 8.15 and 7.41.
In the same order, the values of `C[C@H](CCC(=O)Nc1ccc(S(N)(=O)=O)cc1Cl)[C@H]1CC[C@H]2[C@@H]3C(=O)C[C@@H]4CC(=O)CC[C@]4(C)[C@H]3CC(=O)[C@]12C` are 7.89, 7.52 and 6.70.
Consider `C[C@H](CCC(=O)Nc1ccccc1S(N)(=O)=O)[C@H]1CC[C@H]2[C@@H]3[C@H](O)C[C@@H]4C[C@H](O)CC[C@]4(C)[C@H]3C[C@H](O)[C@]12C`, for which the results for the pKi at Carbonic anhydrase 2, at Carbonic anhydrase 4 and on Carbonic anhydrase 1 were 6.56, 5.92 and 4.59, respectively.
In the same order, the values of `C[C@H](CCC(=O)Nc1cccc(S(N)(=O)=O)c1)[C@H]1CC[C@H]2[C@@H]3[C@@H](O)C[C@@H]4C[C@H](O)CC[C@]4(C)[C@H]3CC[C@]12C` are 6.80, 6.32 and 5.15.
In the same order, the values of `C[C@H](CCC(=O)NNc1ccc(S(N)(=O)=O)cc1)[C@H]1CC[C@H]2[C@@H]3[C@H](O)C[C@@H]4C[C@H](O)CC[C@]4(C)[C@H]3CC[C@]12C` are 6.53, 6.07 and 4.56.
As for `C[C@H](CCC(=O)Nc1ccc(S(N)(=O)=O)cc1)[C@H]1CC[C@H]2[C@@H]3C(=O)C[C@@H]4CC(=O)CC[C@]4(C)[C@H]3CC(=O)[C@]12C`, the results for the pKi at Carbonic anhydrase 2, on Carbonic anhydrase 4 and at Carbonic anhydrase 1 were 7.15, 6.83 and 5.43, respectively.
